# From patent EP0394553A2, “Use of fluorine containing pyridone carboxylic acid derivatives for preparing a medicament for the treatment of HIV infections” (DAIICHI PHARMACEUTICAL CO., LTD., priority 1989, dated 1990)
# Read-outs that look alike come from different tables or passages of the source.
# Key:
# HIV (LAV 1) = test: microbe, parasite or virus in culture; settings: for Viral antigen-positive cell percentage / Viable cell count: 10 mcg/ml; for viability at 1 µg/mL / viability at 2.5 µg/mL / viability at 5 µg/mL / viability at 10 µg/mL: Human immunodeficiency virus 1, CCRF-CEM
# Method in brief: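 CEM cells were infected with HIV LAV 1 at MOI 0.05 and cultured with test substance at 10, 5, 2.5 or 1 mcg/ml, with medium exchanged periodically up to 30 days. Viable cell count and percentage were measured by trypan blue, and antigen-positive cells by immunofluorescence with anti-HIV antiserum, at 4–30 days. Values are means of two wells.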
# in vivo = settings: mouse, iv
# [1] = continuous addition, after 4 days
# [2] = continuous addition, after 7 days
# [3] = continuous addition, after 10 days
# [4] = continuous addition, after 20 days
# [5] = continuous addition, after 30 days
structure (smiles),measurement,setting,value
"C[C@H]1COc2c(N3CCN(C)CC3)c(F)cc3c(=O)c(C(=O)O)cn1c23 [DR-3355, (-)-(S)-9-fluoro-2,3-dihydro-3-methyl-10-(4-methyl-1-piperazinyl)-7-oxo-7H-pyrido[1,2,3-de][1,4]benzoxazine-6-carboxylic acid hemihydrate]",Viral antigen-positive cell percentage,"HIV (LAV 1); 4-day addition, after 4 days",88%
same,Viable cell count,"HIV (LAV 1); 4-day addition, after 7 days",50 × 10⁴ cells/ml
same,Viral antigen-positive cell percentage,"HIV (LAV 1); 4-day addition, after 7 days",57%
same,Viable cell count,"HIV (LAV 1); 4-day addition, after 10 days",280 × 10⁴ cells/ml
same,Viral antigen-positive cell percentage,"HIV (LAV 1); 4-day addition, after 10 days",31%
same,Viable cell count,"HIV (LAV 1); 4-day addition, after 20 days",230 × 10⁴ cells/ml
same,Viral antigen-positive cell percentage,"HIV (LAV 1); 4-day addition, after 20 days",19%
same,Viable cell count,"HIV (LAV 1); 4-day addition, after 30 days",320 × 10⁴ cells/ml
same,Viral antigen-positive cell percentage,"HIV (LAV 1); 4-day addition, after 30 days",≦1%
same,Viable cell count,HIV (LAV 1); [1],160 × 10⁴ cells/ml
same,Viral antigen-positive cell percentage,HIV (LAV 1); [1],89%
same,Viable cell count,HIV (LAV 1); [2],43 × 10⁴ cells/ml
same,Viral antigen-positive cell percentage,HIV (LAV 1); [2],55%
same,Viable cell count,HIV (LAV 1); [3],220 × 10⁴ cells/ml
same,Viral antigen-positive cell percentage,HIV (LAV 1); [3],31%
same,Viable cell count,HIV (LAV 1); [4],260 × 10⁴ cells/ml
same,Viral antigen-positive cell percentage,HIV (LAV 1); [4],21%
same,Viable cell count,HIV (LAV 1); [5],260 × 10⁴ cells/ml
same,Viral antigen-positive cell percentage,HIV (LAV 1); [5],4%
same,viability at 1 µg/mL,"HIV (LAV 1); 96 h, read-out: Viable cell percentage, 1 mcg/ml, 4-day addition, after 4 days",95%
same,viability at 1 µg/mL,"HIV (LAV 1); 96 h, read-out: Viable cell percentage, 1 mcg/ml, continuous addition, after 4 days",94%
same,viability at 2.5 µg/mL,"HIV (LAV 1); 96 h, read-out: Viable cell percentage, 2.5 mcg/ml, 4-day addition, after 4 days",94%
same,viability at 2.5 µg/mL,"HIV (LAV 1); 96 h, read-out: Viable cell percentage, 2.5 mcg/ml, continuous addition, after 4 days",94%
same,viability at 5 µg/mL,"HIV (LAV 1); 96 h, read-out: Viable cell percentage, 5 mcg/ml, 4-day addition, after 4 days",91%
same,viability at 5 µg/mL,"HIV (LAV 1); 96 h, read-out: Viable cell percentage, 5 mcg/ml, continuous addition, after 4 days",89%
same,viability at 10 µg/mL,"HIV (LAV 1); 96 h, read-out: Viable cell percentage, 10 mcg/ml, 4-day addition, after 4 days",92%
same,viability at 10 µg/mL,"HIV (LAV 1); 96 h, read-out: Viable cell percentage, 10 mcg/ml, continuous addition, after 4 days",91%
same,viability at 1 µg/mL,"HIV (LAV 1); 168 h, read-out: Viable cell percentage, 1 mcg/ml, continuous addition, after 7 days",69%
same,viability at 2.5 µg/mL,"HIV (LAV 1); 168 h, read-out: Viable cell percentage, 2.5 mcg/ml, continuous addition, after 7 days",68%
same,viability at 5 µg/mL,"HIV (LAV 1); 168 h, read-out: Viable cell percentage, 5 mcg/ml, continuous addition, after 7 days",66%
same,viability at 10 µg/mL,"HIV (LAV 1); 168 h, read-out: Viable cell percentage, 10 mcg/ml, continuous addition, after 7 days",75%
same,viability at 1 µg/mL,"HIV (LAV 1); 240 h, read-out: Viable cell percentage, 1 mcg/ml, continuous addition, after 10 days",61%
same,viability at 2.5 µg/mL,"HIV (LAV 1); 240 h, read-out: Viable cell percentage, 2.5 mcg/ml, continuous addition, after 10 days",94%
same,viability at 5 µg/mL,"HIV (LAV 1); 240 h, read-out: Viable cell percentage, 5 mcg/ml, continuous addition, after 10 days",95%
same,viability at 10 µg/mL,"HIV (LAV 1); 240 h, read-out: Viable cell percentage, 10 mcg/ml, continuous addition, after 10 days",92%
same,viability at 1 µg/mL,"HIV (LAV 1); 480 h, read-out: Viable cell percentage, 1 mcg/ml, continuous addition, after 20 days",50%
same,viability at 2.5 µg/mL,"HIV (LAV 1); 480 h, read-out: Viable cell percentage, 2.5 mcg/ml, continuous addition, after 20 days",95%
same,viability at 5 µg/mL,"HIV (LAV 1); 480 h, read-out: Viable cell percentage, 5 mcg/ml, continuous addition, after 20 days",89%
same,viability at 10 µg/mL,"HIV (LAV 1); 480 h, read-out: Viable cell percentage, 10 mcg/ml, continuous addition, after 20 days",87%
same,viability at 1 µg/mL,"HIV (LAV 1); read-out: Viable cell percentage, 1 mcg/ml, 4-day addition, after 7 days",70%
same,viability at 1 µg/mL,"HIV (LAV 1); read-out: Viable cell percentage, 1 mcg/ml, 4-day addition, after 10 days",61%
same,viability at 1 µg/mL,"HIV (LAV 1); read-out: Viable cell percentage, 1 mcg/ml, 4-day addition, after 20 days",20%
same,viability at 1 µg/mL,"HIV (LAV 1); read-out: Viable cell percentage, 1 mcg/ml, 4-day addition, after 30 days",98%
same,viability at 1 µg/mL,"HIV (LAV 1); read-out: Viable cell percentage, 1 mcg/ml, continuous addition, after 30 days",98%
same,viability at 2.5 µg/mL,"HIV (LAV 1); read-out: Viable cell percentage, 2.5 mcg/ml, 4-day addition, after 7 days",80%
same,viability at 2.5 µg/mL,"HIV (LAV 1); read-out: Viable cell percentage, 2.5 mcg/ml, 4-day addition, after 10 days",92%
same,viability at 2.5 µg/mL,"HIV (LAV 1); read-out: Viable cell percentage, 2.5 mcg/ml, 4-day addition, after 20 days",87%
same,viability at 2.5 µg/mL,"HIV (LAV 1); read-out: Viable cell percentage, 2.5 mcg/ml, 4-day addition, after 30 days",83%
same,viability at 2.5 µg/mL,"HIV (LAV 1); read-out: Viable cell percentage, 2.5 mcg/ml, continuous addition, after 30 days",88%
same,viability at 5 µg/mL,"HIV (LAV 1); read-out: Viable cell percentage, 5 mcg/ml, 4-day addition, after 7 days",76%
same,viability at 5 µg/mL,"HIV (LAV 1); read-out: Viable cell percentage, 5 mcg/ml, 4-day addition, after 10 days",95%
same,viability at 5 µg/mL,"HIV (LAV 1); read-out: Viable cell percentage, 5 mcg/ml, 4-day addition, after 20 days",87%
same,viability at 5 µg/mL,"HIV (LAV 1); read-out: Viable cell percentage, 5 mcg/ml, 4-day addition, after 30 days",92%
same,viability at 5 µg/mL,"HIV (LAV 1); read-out: Viable cell percentage, 5 mcg/ml, continuous addition, after 30 days",75%
same,viability at 10 µg/mL,"HIV (LAV 1); read-out: Viable cell percentage, 10 mcg/ml, 4-day addition, after 7 days",68%
same,viability at 10 µg/mL,"HIV (LAV 1); read-out: Viable cell percentage, 10 mcg/ml, 4-day addition, after 10 days",94%
same,viability at 10 µg/mL,"HIV (LAV 1); read-out: Viable cell percentage, 10 mcg/ml, 4-day addition, after 20 days",85%
same,viability at 10 µg/mL,"HIV (LAV 1); read-out: Viable cell percentage, 10 mcg/ml, 4-day addition, after 30 days",92%
same,viability at 10 µg/mL,"HIV (LAV 1); read-out: Viable cell percentage, 10 mcg/ml, continuous addition, after 30 days",83%
same,LD50,in vivo,≥ 200 mg/kg
